Measurements: ChEMBL document CHEMBL1121763, “2,3-Dihydrobenzofuran-2-ones: a new class of highly potent antiinflammatory agents” (J Med Chem, 1981)

Experiments:
[1] = target: Cyclooxygenase (Bos taurus)
[2] = organism: Rattus norvegicus; assay: animal or person; assay type: functional; conditions: po, 3 h
Description: Compound administered perorally for inhibition of carrageenan induced paw edema after 3h in rat

[3] = system: Rattus norvegicus; assay: Inhibition of adjuvant-induced polyarthritis in rat following p.o. administration.; assay type: functional; conditions: po

Structure (SMILES) | IC50 [1] | ED50 [2] | ED50 [3]
O=C1Cc2cc(Br)c(C3CCCCC3)cc2O1 | 0.03 µM | 2 mg/kg | 7 mg/kg
O=C1Cc2cc([N+](=O)[O-])c(C3CCCCC3)cc2O1 | 0.5 µM | 6 mg/kg | 4 mg/kg
O=C1Cc2cc(Cl)c(-c3ccccc3)cc2O1 | 0.08 µM | 1 mg/kg | 3 mg/kg
COc1ccc2c(c1)c(CC(=O)O)c(C)n2C(=O)c1ccc(Cl)cc1 [INDOMETHACIN] | – | 2 mg/kg | 0.4 mg/kg
O=C1Cc2cc(C3CCCCC3)ccc2O1 | 10 µM | > 60 mg/kg | –
O=C1Cc2ccc(C3CCCCC3)cc2O1 | 0.8 µM | 1 mg/kg | 20 mg/kg
O=C(O)Cc1ccccc1Nc1c(Cl)cccc1Cl [DICLOFENAC] | – | 3 mg/kg | 2 mg/kg
Cc1cc2c(cc1C1CCCCC1)OC(=O)C2C (configuration not stated) | 0.1 µM | 6 mg/kg | < 3 mg/kg
COc1cc2c(cc1-c1ccccc1)OC(=O)C2 | 10 µM | 30 mg/kg | 30 mg/kg
O=C1Cc2cc(O)c(-c3ccccc3)cc2O1 | 50 µM | > 30 mg/kg | –

More lines, main results first:

IC50 [1] | Structure (SMILES) | ED50 [2] | ED50 [3]
3 µM | CC(C)Cc1ccc2c(c1)OC(=O)C2 | 8 mg/kg | > 40 mg/kg
10 µM | O=C1Cc2ccc(C3CCCC3)cc2O1 | 30 mg/kg | 60 mg/kg
50 µM | CCC1C(=O)Oc2cc(-c3ccccc3)ccc21 (configuration not stated) | 25 mg/kg | > 30 mg/kg
0.05 µM | O=C1Cc2cc(Cl)c(C3CCCCC3)cc2O1 [CLOFURAC] | 0.5 mg/kg | 1 mg/kg
100 µM | O=C1Cc2cccc(C3CCCCC3)c2O1 | > 60 mg/kg | > 30 mg/kg
1 µM | O=C1Cc2cc(Cl)c(C3CCCCC3)c(Cl)c2O1 | 2 mg/kg | 30 mg/kg
3 µM | O=C1Cc2ccc(C3CCCCC3)c(Br)c2O1 | 36 mg/kg | > 30 mg/kg
0.1 µM | Cc1cc2c(cc1C1CCCCC1)OC(=O)C2 | 3 mg/kg | 1.5 mg/kg
0.08 µM | CC1C(=O)Oc2cc(-c3ccccc3)c(Cl)cc21 (configuration not stated) | 0.3 mg/kg | 2 mg/kg
0.4 µM | CC1C(=O)Oc2cc(C3CCCCC3)ccc21 (configuration not stated) | 0.8 mg/kg | 2.5 mg/kg
0.5 µM | CC1C(=O)Oc2cc(-c3ccccc3)ccc21 (configuration not stated) | 2.5 mg/kg | 14 mg/kg
0.07 µM | CC1C(=O)Oc2cc(C3CCCCC3)c(Cl)cc21 (configuration not stated) | 0.3 mg/kg | 1 mg/kg
> 100 µM | O=C1Cc2ccccc2O1 | > 60 mg/kg | –
0.7 µM | O=C1Cc2ccc(-c3ccccc3)cc2O1 | 6 mg/kg | 20 mg/kg
